Target: Forkhead box protein O3 (Homo sapiens, UniProt O43524)
Test: Induction of nuclear translocation of FOXO3 in human U2OS cells by inverted microscopic analysis

Sequence of Forkhead box protein O3 (O43524 whole entry): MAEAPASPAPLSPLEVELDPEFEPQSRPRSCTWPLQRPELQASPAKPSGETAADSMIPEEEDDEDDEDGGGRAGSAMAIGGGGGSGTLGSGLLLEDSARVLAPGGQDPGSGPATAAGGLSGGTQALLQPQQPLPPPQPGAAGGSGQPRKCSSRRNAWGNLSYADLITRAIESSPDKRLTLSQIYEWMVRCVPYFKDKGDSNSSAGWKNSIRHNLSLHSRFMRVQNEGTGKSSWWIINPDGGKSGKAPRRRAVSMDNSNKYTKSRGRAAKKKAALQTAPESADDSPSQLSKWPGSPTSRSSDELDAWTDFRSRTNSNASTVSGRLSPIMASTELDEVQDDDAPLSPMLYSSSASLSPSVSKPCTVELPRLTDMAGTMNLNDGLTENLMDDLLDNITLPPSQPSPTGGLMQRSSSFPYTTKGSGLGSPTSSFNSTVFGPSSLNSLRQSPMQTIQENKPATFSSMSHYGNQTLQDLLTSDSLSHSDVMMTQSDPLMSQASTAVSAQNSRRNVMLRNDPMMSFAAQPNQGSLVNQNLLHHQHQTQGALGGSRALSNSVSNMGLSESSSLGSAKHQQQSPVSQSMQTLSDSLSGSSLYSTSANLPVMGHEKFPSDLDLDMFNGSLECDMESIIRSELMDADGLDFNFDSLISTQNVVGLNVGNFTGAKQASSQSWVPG

`COc1cc(/C=C/C(=O)N2CCC=CC2=O)cc(OC)c1OC` [CHEBI:8241] gave an EC50 of 37.7 µM.
